From PubChem BioAssay (NCI)
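GI50 = concentration required for 50% inhibition of growth. TGI is the concentration that stops growth completely.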

Assays:
Experiment in all cases: NCI anticancer screen, dose series, 384-well format
[1] = system: 786-0 renal
[2] = system: A498 renal
[3] = system: A549 NSCLC
[4] = system: ACHN renal
[5] = system: BT-549 breast
[6] = system: CAKI-1 renal
[7] = system: CCRF-CEM leukemia
[8] = system: COLO 205 colon
[9] = system: DU-145 prostate
[10] = system: EKVX NSCLC
[11] = system: HCC-2998 colon
[12] = system: HCT-116 colon
[13] = system: HCT-15 colon
[14] = system: HL-60(TB) leukemia
[15] = system: HOP-62 NSCLC
[16] = system: HOP-92 NSCLC
[17] = system: HS 578T breast
[18] = system: HT29 colon
[19] = system: IGROV1 ovarian
[20] = system: K-562 leukemia
[21] = system: KM12 colon
[22] = system: LOX IMVI melanoma
[23] = system: M14 melanoma
[24] = system: MALME-3M melanoma
[25] = system: MCF7 breast
[26] = system: MDA-MB-231 breast
[27] = system: MDA-MB-435 melanoma
[28] = system: MDA-MB-468 breast
[29] = system: MOLT-4 leukemia
[30] = system: NCI-H226 lung
[31] = system: NCI-H23 lung
[32] = system: NCI-H322M lung
[33] = system: NCI-H460 NSCLC
[34] = system: NCI-H522 lung
[35] = system: OVCAR-3 ovarian
[36] = system: OVCAR-4 ovarian
[37] = system: OVCAR-5 ovarian
[38] = system: OVCAR-8 ovarian
[39] = system: PC-3 prostate
[40] = system: RPMI-8226 leukemia
[41] = system: RXF 393 renal
[42] = system: SF-268 CNS
[43] = system: SF-295 CNS
[44] = system: SF-539 CNS
[45] = system: SK-MEL-2 melanoma
[46] = system: SK-MEL-28 melanoma
[47] = system: SK-MEL-5 melanoma
[48] = system: SK-OV-3 ovarian
[49] = system: SN12C renal
[50] = system: SNB-19 CNS
[51] = system: SNB-75 CNS
[52] = system: SR leukemia
[53] = system: SW-620 colon
[54] = system: T-47D breast
[55] = system: TK-10 renal
[56] = system: U251 glioblastoma
[57] = system: UACC-257 melanoma
[58] = system: UACC-62 melanoma
[59] = system: UO-31 renal

COc1cc([C@@H]2c3cc4c(cc3[C@@H](OC3OC5COC(C)OC5C(O)C3O)[C@H]3COC(=O)[C@H]23)OCO4)cc(OC)c1O (stereo not given in full)
GI50 [1]: 1.59 µM
TGI [1]: 7.56 µM
GI50 [2]: 2 µM
TGI [2]: 19 µM
GI50 [3]: 1.22 µM
TGI [3]: > 47 µM
GI50 [4]: 1.8 µM
TGI [4]: 10.3 µM
GI50 [5]: 0.877 µM
TGI [5]: 4.74 µM
GI50 [6]: 1.61 µM
TGI [6]: > 41 µM
GI50 [7]: 0.0638 µM
TGI [7]: 0.2 µM
GI50 [8]: 0.433 µM
TGI [8]: 10.6 µM
GI50 [9]: 1.52 µM
TGI [9]: 5.25 µM
GI50 [10]: 11.3 µM
TGI [10]: > 43.6 µM
GI50 [11]: 1.82 µM
TGI [11]: 4.15 µM
GI50 [12]: 0.56 µM
TGI [12]: 25.9 µM
GI50 [13]: 2.01 µM
TGI [13]: 13.6 µM
GI50 [14]: 0.0215 µM
TGI [14]: 0.0492 µM
GI50 [15]: 0.747 µM
TGI [15]: 2.51 µM
GI50 [16]: 2.46 µM
TGI [16]: > 43.1 µM
GI50 [17]: 0.463 µM
TGI [17]: 4.82 µM
GI50 [18]: 2.28 µM
TGI [18]: 7.3 µM
GI50 [19]: 4.27 µM
TGI [19]: > 37.6 µM
GI50 [20]: 0.91 µM
TGI [20]: 6.36 µM
GI50 [21]: 1.68 µM
TGI [21]: 7.91 µM
GI50 [22]: 1.66 µM
TGI [22]: 15.9 µM
GI50 [23]: 1.32 µM
TGI [23]: 6.64 µM
GI50 [24]: 6.15 µM
TGI [24]: 43.5 µM
GI50 [25]: 0.716 µM
GI50 [26]: 1.88 µM
TGI [26]: 4.62 µM
GI50 [27]: 3.96 µM
TGI [27]: 20.4 µM
GI50 [28]: 1.13 µM
TGI [28]: 2.78 µM
GI50 [29]: 0.0176 µM
TGI [29]: 0.0389 µM
GI50 [30]: 2.48 µM
TGI [30]: > 37.2 µM
GI50 [31]: 0.809 µM
TGI [31]: 4.37 µM
GI50 [32]: 29.1 µM
TGI [32]: > 96.7 µM
GI50 [33]: 0.0915 µM
TGI [33]: 7.61 µM
GI50 [34]: 1.21 µM
TGI [34]: 7.35 µM
GI50 [35]: 2.64 µM
TGI [35]: 13.8 µM
GI50 [36]: 39.9 µM
GI50 [37]: 3.37 µM
TGI [37]: 13.8 µM
GI50 [38]: 1.53 µM
TGI [38]: 10.3 µM
GI50 [39]: 20.4 µM
GI50 [40]: 0.0361 µM
TGI [40]: 0.564 µM
GI50 [41]: 9.62 µM
TGI [41]: 38.3 µM
GI50 [42]: 1.36 µM
TGI [42]: 6.87 µM
GI50 [43]: 0.851 µM
TGI [43]: 3.01 µM
GI50 [44]: 0.976 µM
TGI [44]: 4.38 µM
GI50 [45]: 4.15 µM
TGI [45]: 8.27 µM
GI50 [46]: 2.61 µM
TGI [46]: 11.4 µM
GI50 [47]: 0.37 µM
TGI [47]: 1.71 µM
GI50 [48]: 2.94 µM
TGI [48]: 14.6 µM
GI50 [49]: 1.28 µM
TGI [49]: 5.72 µM
GI50 [50]: 1.08 µM
TGI [50]: > 23.1 µM
GI50 [51]: 1.36 µM
TGI [51]: 6.63 µM
GI50 [52]: 0.0161 µM
TGI [52]: 0.0494 µM
GI50 [53]: 0.441 µM
TGI [53]: 5.58 µM
GI50 [54]: 1.04 µM
TGI [54]: > 95.3 µM
GI50 [55]: 2.88 µM
TGI [55]: 11.3 µM
GI50 [56]: 0.533 µM
TGI [56]: 5.05 µM
GI50 [57]: 16.6 µM
TGI [57]: > 75.9 µM
GI50 [58]: 1.33 µM
TGI [58]: 16.6 µM
GI50 [59]: 22.2 µM
TGI [59]: > 77.9 µM

COc1cc(F)c(F)c(Nc2ccc(I)cc2F)c1NS(=O)(=O)C1(CC(O)CO)CC1 (stereo not given)
GI50 [1]: 16.9 µM
TGI [1]: 31.7 µM
GI50 [2]: 16.1 µM
TGI [2]: 31 µM
GI50 [3]: 20 µM
TGI [3]: 55 µM
GI50 [4]: 17.1 µM
TGI [4]: 33.9 µM
GI50 [5]: 14.1 µM
TGI [5]: 27.2 µM
GI50 [6]: 16 µM
TGI [6]: 70.1 µM
GI50 [8]: 6.9 µM
TGI [8]: 24.1 µM
GI50 [9]: 18.1 µM
TGI [9]: 37.4 µM
GI50 [10]: 19.5 µM
TGI [10]: 44.4 µM
GI50 [12]: 14.7 µM
TGI [12]: 28.7 µM
GI50 [13]: 20.5 µM
TGI [13]: 48.9 µM
GI50 [14]: 6.51 µM
TGI [14]: 19.4 µM
GI50 [15]: 14.2 µM
TGI [15]: 29.1 µM
GI50 [16]: 14.7 µM
TGI [16]: 28.6 µM
GI50 [17]: 14.8 µM
TGI [17]: 28.1 µM
GI50 [18]: 10.4 µM
TGI [18]: 22.5 µM
GI50 [19]: 14.5 µM
TGI [19]: 31.5 µM
GI50 [20]: 14.3 µM
TGI [20]: 27.7 µM
GI50 [21]: 16.1 µM
TGI [21]: 30 µM
GI50 [23]: 3.22 µM
TGI [23]: 12.5 µM
GI50 [24]: 2.12 µM
TGI [24]: 6.94 µM
GI50 [25]: 14.8 µM
TGI [25]: 30.4 µM
GI50 [26]: 13.9 µM
TGI [26]: 36.3 µM
GI50 [27]: 6.29 µM
TGI [27]: 20.1 µM
GI50 [28]: 13.8 µM
TGI [28]: 32.6 µM
GI50 [29]: 14.1 µM
TGI [29]: 27.1 µM
GI50 [30]: 14.6 µM
TGI [30]: 31.9 µM
GI50 [31]: 13.7 µM
TGI [31]: 32.4 µM
GI50 [32]: 26 µM
TGI [32]: 59.3 µM
GI50 [33]: 16.2 µM
TGI [33]: 30.3 µM
GI50 [34]: 15.4 µM
TGI [34]: 29.4 µM
GI50 [35]: 13.9 µM
TGI [35]: 27.1 µM
GI50 [36]: 19.8 µM
TGI [36]: 70 µM
GI50 [37]: 18.2 µM
TGI [37]: 41 µM
GI50 [38]: 23.1 µM
TGI [38]: 58.3 µM
GI50 [39]: 16.3 µM
TGI [39]: 30.3 µM
GI50 [41]: 13.4 µM
TGI [41]: 26.9 µM
GI50 [42]: 19.7 µM
TGI [42]: 39.5 µM
GI50 [43]: 16.1 µM
TGI [43]: 30.4 µM
GI50 [44]: 15 µM
TGI [44]: 29.5 µM
GI50 [45]: 12.9 µM
TGI [45]: 25.6 µM
GI50 [46]: 3.18 µM
TGI [46]: 13.3 µM
GI50 [47]: 7.62 µM
TGI [47]: 20.5 µM
GI50 [48]: 21.8 µM
TGI [48]: 56.9 µM
GI50 [49]: 16.9 µM
TGI [49]: 35.3 µM
GI50 [50]: 22.3 µM
TGI [50]: 62.9 µM
GI50 [51]: 15 µM
TGI [51]: 31.4 µM
GI50 [52]: 14.5 µM
TGI [52]: 27.6 µM
GI50 [53]: 15.6 µM
TGI [53]: 41.3 µM
GI50 [54]: 21.2 µM
TGI [54]: 81.6 µM
GI50 [55]: 20.6 µM
TGI [55]: 53.8 µM
GI50 [56]: 16.6 µM
TGI [56]: 34.3 µM
GI50 [57]: 4.81 µM
TGI [57]: 18.1 µM
GI50 [58]: 3.82 µM
TGI [58]: 14 µM
GI50 [59]: 13.4 µM
TGI [59]: 32.2 µM
